{"source": "paper PMC6253949", "about": "“The Inhibitory Action of Kohamaic Acid A Derivatives on Mammalian DNA Polymerase β” (Molecules, 2008)", "key": {"[1]": {"system": "HL-60 cells", "experiment": "HL-60 cancer cell growth, MTT assay", "assay_type": "cell-based, human", "conditions": "50 μM, 24 hr", "procedure": "To investigate the effects of KA-A derivatives in cultured cells, we used a human cancer cell line, HL-60, human promyelocytic leukemia cells (IFO 050022), supplied by the Health Science Research Resources Bank (Osaka, Japan). The cells were routinely cultured in RPMI 1640 medium supplemented with 10% fetal bovine serum, 100 μg/mL streptomycin, 100 unit/mL penicillin, and 1.6 mg/mL NaHCO3. The cells were cultured at 37 °C in standard medium in a humidified atmosphere of 5% CO2-95% air. The rate of the cancer cell growth of the compound was investigated as follows: high concentrations (10 mM) of the compounds were dissolved in DMSO and stocked. Approximately 1 x 10^4 cells per well were inoculated in 96-well micro plates, and then the compound stock solution was diluted to various concentrations, and applied to each well. After incubation for 24 hr, the survival rate was determined by MTT (3-(4,5-dimethylthiazol-2-yl)-2,5-diphenyl tetrazolium bromide) assay."}, "[2]": {"target": "T1, Rat DNA polymerase β (Rattus norvegicus, UniProt P06766)", "T1 construct": "made in house; host or cells: E. coli JMpβ5", "parameters": "method as in PMID 12758147", "conditions": "reported previously; read-out: IC50 value, pol β; cited from earlier work"}, "[3]": {"target": "T2, Calf DNA polymerase α (Bos taurus, UniProt A0AAA9THK8)", "T2 sequence (Q58D13 whole entry)": "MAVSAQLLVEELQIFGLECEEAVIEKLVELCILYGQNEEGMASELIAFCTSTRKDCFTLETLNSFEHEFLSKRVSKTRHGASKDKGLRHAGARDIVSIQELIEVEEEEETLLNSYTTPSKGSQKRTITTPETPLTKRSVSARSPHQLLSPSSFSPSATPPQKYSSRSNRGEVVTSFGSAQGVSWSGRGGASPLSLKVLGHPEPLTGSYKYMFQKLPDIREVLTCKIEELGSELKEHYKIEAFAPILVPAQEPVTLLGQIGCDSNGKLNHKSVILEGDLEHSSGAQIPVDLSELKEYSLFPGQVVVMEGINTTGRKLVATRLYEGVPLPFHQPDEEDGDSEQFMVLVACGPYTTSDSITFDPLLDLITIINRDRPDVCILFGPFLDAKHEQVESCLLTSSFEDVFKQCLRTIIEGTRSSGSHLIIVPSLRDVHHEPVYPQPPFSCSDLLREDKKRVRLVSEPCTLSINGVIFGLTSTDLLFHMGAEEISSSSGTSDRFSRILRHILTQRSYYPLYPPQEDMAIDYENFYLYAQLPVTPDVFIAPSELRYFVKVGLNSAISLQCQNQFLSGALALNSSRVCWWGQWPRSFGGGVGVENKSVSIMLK", "T2 sequence (A0AAA9THK8 entry or part of it)": "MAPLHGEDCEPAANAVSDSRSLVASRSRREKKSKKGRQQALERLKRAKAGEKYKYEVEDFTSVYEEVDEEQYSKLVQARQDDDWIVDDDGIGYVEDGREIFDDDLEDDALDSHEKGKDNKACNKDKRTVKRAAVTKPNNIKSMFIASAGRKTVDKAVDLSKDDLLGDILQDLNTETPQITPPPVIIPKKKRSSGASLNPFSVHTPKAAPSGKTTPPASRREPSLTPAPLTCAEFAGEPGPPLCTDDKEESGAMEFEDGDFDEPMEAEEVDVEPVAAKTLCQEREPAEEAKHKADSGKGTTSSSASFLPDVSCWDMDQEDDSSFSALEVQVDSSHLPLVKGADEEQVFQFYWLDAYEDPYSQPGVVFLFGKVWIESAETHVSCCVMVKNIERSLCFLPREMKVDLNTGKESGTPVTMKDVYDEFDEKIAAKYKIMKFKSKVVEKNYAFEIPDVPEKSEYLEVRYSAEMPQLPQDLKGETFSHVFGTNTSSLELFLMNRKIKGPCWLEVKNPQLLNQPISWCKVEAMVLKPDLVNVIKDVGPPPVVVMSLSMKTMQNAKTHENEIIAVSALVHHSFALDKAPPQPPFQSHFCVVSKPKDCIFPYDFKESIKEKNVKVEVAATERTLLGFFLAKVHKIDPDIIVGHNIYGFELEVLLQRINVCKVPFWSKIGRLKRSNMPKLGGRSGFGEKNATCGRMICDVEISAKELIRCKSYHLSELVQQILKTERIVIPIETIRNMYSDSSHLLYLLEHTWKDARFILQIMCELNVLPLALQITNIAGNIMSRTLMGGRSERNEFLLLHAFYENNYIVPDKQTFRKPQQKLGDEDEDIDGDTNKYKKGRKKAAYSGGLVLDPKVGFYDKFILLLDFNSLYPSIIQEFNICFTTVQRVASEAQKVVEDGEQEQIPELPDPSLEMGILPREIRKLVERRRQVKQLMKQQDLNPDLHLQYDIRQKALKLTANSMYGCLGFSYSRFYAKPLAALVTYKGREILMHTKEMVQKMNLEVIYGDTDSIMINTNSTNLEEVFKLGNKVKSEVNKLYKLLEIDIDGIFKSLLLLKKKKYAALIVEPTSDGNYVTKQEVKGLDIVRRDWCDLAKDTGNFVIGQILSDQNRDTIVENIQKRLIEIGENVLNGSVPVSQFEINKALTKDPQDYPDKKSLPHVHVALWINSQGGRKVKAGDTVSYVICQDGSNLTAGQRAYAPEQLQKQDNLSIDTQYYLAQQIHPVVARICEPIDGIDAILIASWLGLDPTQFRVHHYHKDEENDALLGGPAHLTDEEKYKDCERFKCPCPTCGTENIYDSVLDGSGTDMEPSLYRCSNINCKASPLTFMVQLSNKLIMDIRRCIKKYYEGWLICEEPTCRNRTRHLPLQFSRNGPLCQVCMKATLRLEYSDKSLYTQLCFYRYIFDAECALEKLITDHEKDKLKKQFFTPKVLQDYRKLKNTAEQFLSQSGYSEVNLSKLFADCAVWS", "T2 sequence (A0JNF4 entry or part of it, further chain)": "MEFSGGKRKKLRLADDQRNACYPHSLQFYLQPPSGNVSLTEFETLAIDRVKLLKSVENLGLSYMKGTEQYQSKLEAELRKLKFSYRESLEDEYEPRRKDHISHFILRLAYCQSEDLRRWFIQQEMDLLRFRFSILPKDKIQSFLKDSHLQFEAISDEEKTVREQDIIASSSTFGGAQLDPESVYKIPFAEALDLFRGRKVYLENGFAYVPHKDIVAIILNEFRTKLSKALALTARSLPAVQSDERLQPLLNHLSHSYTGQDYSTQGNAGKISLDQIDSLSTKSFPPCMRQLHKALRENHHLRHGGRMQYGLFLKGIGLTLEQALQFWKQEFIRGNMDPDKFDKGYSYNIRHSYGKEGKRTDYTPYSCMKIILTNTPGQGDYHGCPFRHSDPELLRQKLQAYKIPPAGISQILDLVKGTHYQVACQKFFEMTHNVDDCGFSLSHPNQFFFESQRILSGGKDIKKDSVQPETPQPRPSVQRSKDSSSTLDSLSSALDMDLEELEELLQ", "T2 sequence (A0A3Q1MF00 entry or part of it, further chain)": "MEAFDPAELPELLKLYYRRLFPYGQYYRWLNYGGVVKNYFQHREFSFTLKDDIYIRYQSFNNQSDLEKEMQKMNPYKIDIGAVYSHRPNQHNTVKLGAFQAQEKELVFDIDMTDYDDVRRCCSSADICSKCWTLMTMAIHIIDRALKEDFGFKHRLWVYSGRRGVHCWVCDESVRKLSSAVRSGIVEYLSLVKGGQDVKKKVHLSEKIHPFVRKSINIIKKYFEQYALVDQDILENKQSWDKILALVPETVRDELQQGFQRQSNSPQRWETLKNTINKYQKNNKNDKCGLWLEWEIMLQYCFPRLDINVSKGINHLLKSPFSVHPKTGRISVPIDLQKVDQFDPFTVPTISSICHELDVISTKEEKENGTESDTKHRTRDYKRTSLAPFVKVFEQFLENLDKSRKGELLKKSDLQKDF", "parameters": "method as in PMID 12758147", "conditions": "reported previously; read-out: IC50 value, pol α; cited from earlier work"}, "[4]": {"target": "T2, Calf DNA polymerase α", "experiment": "DNA polymerase assay, calf pol α", "assay_type": "biochemical", "description": "(§1) Pol α was purified from calf thymus by immuno-affinity column chromatography as described by Tamai et al.. Recombinant rat pol β was purified from E. coli JMpβ5 as described by Date et al.. The human pol γ catalytic gene was cloned into pFastBac. Histidine-tagged enzyme was expressed using the BAC-TO-BAC HT Baculovirus Expression System according to the supplier's manual (LIFE TECHNOLOGIES, MD, USA) and purified using ProBoundresin (Invitrogen Japan, Tokyo, Japan). Human pols δ and ε were purified by the nuclear fractionation of human peripheral blood cancer cells (Molt-4) using the second subunit of pols δ and ε-conjugated affinity column chromatography, respectively. Recombinant human pols η and ι tagged with His6 at their C-terminal were expressed in SF9 insect cells using the baculovirus expression system, and were purified as described previously. A truncated form of pol κ (i.e., hDINB1DC) with 6 x His-tags attached at the C-terminal was overproduced using the BAC-to-BAC Baculovirus Expression System kit (GIBCO BRL, MD, USA) and purified as described previously. Recombinant human His-pol λ was overexpressed and purified according to a method described previously. Fish pol δ was purified from the testis of cherry salmon (Oncorhynchus masou). Pol I (α-like) from a higher plant, cauliflower inflorescence, was purified according to the methods outlined by Sakaguchi et al.. The Klenow fragment of pol I from E. coli was purchased from Worthington Biochemical Corp. (Freehold, NJ, USA). Taq pol, T4 pol, T7 RNA polymerase and T4 polynucleotide kinase were purchased from Takara (Kyoto, Japan). Bovine pancreas deoxyribonuclease I (DNase I) was obtained from Stratagene Cloning Systems (La Jolla, CA, USA).\n(§2) The reaction mixtures for pol α, pol β, fish pol δ, plant pol I (α-like) and prokaryotic pols were described previously, and those for pol γ, and pols δ and ε were as described by Umeda et al. and Ogawa et al., respectively. The reaction mixtures for pols η, ι and κ were the same as for pol α, and the reaction mixture for pol λ was the same as that for pol β.\nFor pols, poly(dA)/oligo(dT)12-18 (A/T = 2/1) and dTTP were used as the DNA template-primer and nucleotide (i.e., dNTP) substrate, respectively. KA-A analogues (i.e., compounds 1–12) were dissolved in distilled dimethyl sulfoxide (DMSO) at various concentrations and sonicated for 30 sec. Aliquots of 4 μL of sonicated samples were mixed with 16 μL of each enzyme (final amount 0.05 units) in 50 mM Tris-HCl (pH 7.5) containing 1 mM dithiothreitol, 50% glycerol and 0.1 mM EDTA, and kept at 0 °C for 10 min. […] Activity without the inhibitor was considered 100%, and the remaining activity at each concentration of the inhibitor was determined relative to this value. […]"}, "[5]": {"target": "T1, Rat DNA polymerase β", "experiment": "DNA polymerase assay, rat pol β", "assay_type": "biochemical", "conditions": "10 and 100 μM of compound (Figure 2B)", "description": "as §1, §2\nFor pols, poly(dA)/oligo(dT)12-18 (A/T = 2/1) and dTTP were used as the DNA template-primer and nucleotide (i.e., dNTP) substrate, respectively. KA-A analogues (i.e., compounds 1–12) were dissolved in distilled dimethyl sulfoxide (DMSO) at various concentrations and sonicated for 30 sec. Aliquots of 4 μL of sonicated samples were mixed with 16 μL of each enzyme (final amount 0.05 units) in 50 mM Tris-HCl (pH 7.5) containing 1 mM dithiothreitol, 50% glycerol and 0.1 mM EDTA, and kept at 0 °C for 10 min. These inhibitor-enzyme mixtures (8 μl) were added to 16 μL of each of the enzyme standard reaction mixtures, and incubation was carried out at 37 °C for 60 min, except for Taq pol, which was incubated at 74 °C for 60 min. Activity without the inhibitor was considered 100%, and the remaining activity at each concentration of the inhibitor was determined relative to this value. One unit of pol activity was defined as the amount of enzyme that catalyzed the incorporation of 1 nmol of dNTP (i.e., dTTP) into synthetic DNA template-primers in 60 min at 37 °C under the normal reaction conditions for each enzyme."}, "[6]": {"system": "double-stranded DNA (dsDNA)", "experiment": "Thermal transition (Tm) of double-stranded DNA", "assay_type": "binding", "conditions": "compound 11 at 200 μM; data not shown", "procedure": "The Tm of dsDNA with an excess amount of compound 11 (200 μM) was measured using a spectrophotometer equipped with a thermoelectric cell holder."}}, "note": "Where two headings read alike, the source gives them in different places."}
{"compound": "CC1=CC[C@H]2C(C)(C)CCC[C@]2(C)[C@H]1CCCCCCCCCCCCC(=O)O", "note": "(relative stereo) [compound 10, (1S*,4aS*,8aS*)-13-(1,4,4a,5,6,7,8,8a-octahydro-2,5,5,8a-tetramethylnaphthalen-1-yl)tridecanoic acid]", "values": [{"measurement": "Growth inhibitory effect on HL-60 cells, rank among compounds tested", "setting": "[1]", "value": "third strongest"}]}
{"compound": "CC(C)=CCC[C@@]1(C)CCC[C@]2(C)[C@@H](CC/C(C)=C/C(=O)O)C(C)=CC[C@@H]12", "note": "[compound 1, kohamaic acid A]", "values": [{"measurement": "IC50", "setting": "[2]", "value": 8.4, "unit": "µM"}, {"measurement": "IC50", "setting": "[3]", "value": 7.6, "unit": "µM"}]}
{"compound": "C[C@@]1(CO)[C@H](O)CC[C@@]2(C)[C@H]1CC[C@H]1C[C@@H]3C[C@@]12CC[C@]3(O)CO", "note": "[aphidicolin, reference compound]", "values": [{"measurement": "IC50", "setting": "[4]", "value": 40, "unit": "µM"}]}
{"compound": "CC1=CC[C@H]2C(C)(C)CCC[C@]2(C)[C@H]1CCCCCCCCCCCCCCCCCCCCC(=O)O", "note": "(relative stereo) [compound 12, (1S*,4aS*,8aS*)-21-(1,4,4a,5,6,7,8,8a-octahydro-2,5,5,8a-tetramethylnaphthalen-1-yl)henicosanoic acid]", "values": [{"measurement": "Growth inhibitory effect on HL-60 cells, rank among compounds tested", "setting": "[1]", "value": "second"}]}
{"compound": "CC1=CC[C@H]2C(C)(C)CCC[C@]2(C)[C@H]1CCCCCCCCC(=O)O", "note": "(relative stereo) [compound 9, (1S*,4aS*,8aS*)-9-(1,4,4a,5,6,7,8,8a-octahydro-2,5,5,8a-tetramethylnaphthalen-1-yl)nonanoic acid]", "values": [{"measurement": "Inhibitory effect on pol β compared with KA-A", "setting": "[5]", "value": "as strong as that of KA-A"}, {"measurement": "Inhibitory effect on pol α compared with KA-A", "setting": "[4]; 10 and 100 μM of compound (Figure 2A)", "value": "as strong as that of KA-A"}]}
{"compound": "CC[n+]1c(-c2ccccc2)c2cc(N)ccc2c2ccc(N)cc21", "note": "[ethidium bromide, reference compound]", "values": [{"measurement": "Thermal transition of Tm of dsDNA", "setting": "[6]", "value": "clear thermal transition"}]}
